# In patent US20200352912A1, “ANTIMICROBIAL COMPOSITIONS AND METHODS OF USING THE SAME” (The Board Of Supervisors Of Louisiana State University And …, priority 2018, published 2020):
# Key:
# [1] = biological target: EP2 (Homo sapiens, UniProt P43116); conditions: cited from earlier work
# [2] = test system: S. aureus NRS383; experiment: mouse MRSA peritonitis/sepsis model; format: in vivo, mice; conditions: for survival by day 2 post-inoculation: 10 mg/kg i.p.
# Protocol: Mice were infected intraperitoneally with 0.2 ml of the indicated inoculum of S. aureus NRS383 in 3% hog gastric mucin/PBS. One group of mice/inoculum received either the vehicle or L-161, 982 at a dose of 10 mg/kg by i.p. injection as indicated in Materials and Methods. (A) Mortality was assessed using Kaplan Meier test (*P<0.05; **P<0.01; ***P<0.001; ns—not significant; n=15/group) compared to control groups. (B) Microbial burden in peritoneal lavage fluid and spleen was assessed between untreated (control) and treated (L-161, 982) groups 24 and 48 h post-inoculation (n=6 to 8/group). Values are plotted as the median CFU and compared using the Mann-Whitney U test (**P<0.01; ***P<0.001). Data shown are representative of three replicate experiments.
# The mouse peritonitis/intra-abdominal model was performed as previously described (8). In brief, for MRSA peritonitis, mice were injected intraperitoneally (i.p.) with 4×10^6 CFU or 5×10^6 CFU or 2×10^7 CFU of S. aureus in 0.2 ml of PBS containing 3% hog gastric mucin type III (Sigma Aldrich). Mice injected i.p. with 0.2 ml of mucin/PBS served as a negative infection control. For the intra-abdominal infection with C. albicans and S. aureus, mice were injected i.p. with 7×10^6 CFU of C. albicans and 8×10^7 CFU of S. aureus (8.7×10^7 CFU total) in 0.2 ml of PBS. After inoculation, mice were observed over 10 days for signs of morbidity (hunched posture, inactivity, lethargy, and ruffled fur) and mortality. […] In the MRSA peritonitis experiments, mice were sacrificed at 24 or 48 h post-inoculation to assess microbial burden. Peritoneal cavities were lavaged by injection of 2 ml of sterile PBS followed by gentle massaging of the peritoneal cavity. Peritoneal lavage fluid then was removed using a pipette inserted into a small incision in the abdominal cavity. Spleens were removed, weighed, and mechanically homogenized prior to CFU analysis. Microbial burdens in the peritoneal lavage fluid and spleen were enumerated as described above.
# Each inhibitor was prepared fresh as a concentrated stock (20-25 mg/ml) in DMSO and diluted to a working concentration of […] in sterile PBS (final DMSO concentration, 2.3%). A sham treatment containing only 2.3% DMSO in PBS was also prepared. For the MRSA peritonitis study, the EP4 receptor antagonist was administered 2 h after S. aureus inoculation and once daily thereafter until day 4 post inoculation. For the IAI co-infection study, COX inhibitor or vehicle control was administered 4 h prior to and 4 and 8 h after inoculation with C. albicans and S. aureus while the EP receptor antagonists were administered daily starting 1 day prior to and 5 days after infection. All other procedures were performed as described above. Control groups received the vehicle at the same dose interval.
# L-161, 982 protects against mono- and poly-microbial infections with MRSA. We next evaluated the efficacy of L-161, 982 in vivo using an established mouse peritonitis/sepsis model of infection. Mice were inoculated with three varying lethal inocula of S. aureus and treated with L-161, 982 (10 mg/kg) intraperitoneally (i.p.) 2 h post-inoculation and once daily afterwards through day 4. Control group received the vehicle at the same dose interval.
# [3] = test system: MRSA; experiment: checkerboard broth microdilution synergy test with oxacillin; format: cell-based, Staphylococcus aureus; conditions: combination with oxacillin
# Protocol: Due to the newfound antimicrobial activity of L-161, 982 against S. aureus, the checkerboard method (14) with the broth microdilution method, was used to test for synergy with oxacillin, a drug similar to methicillin used more commonly in the clinical setting. Synergy was determined using the fractional inhibitory concentration index (FICI) method (14, 15). With this method, the MIC of the antibiotic compound in combination is divided by the MIC of the compound alone, giving the fractional contribution of each drug component in combination. Quotients for all compounds in combination are summed and drug interactions scored using the formula:
# FICI=((MIC AcombA+B)/MICA)+((MIC BcombA+B)/MICB)
# The stock solutions and serial twofold dilutions of oxacillin ranged from 8× the MIC to 32× below the MIC and that of L-161, 982 ranged from 8× the MIC to 2000× below the MIC. Oxacillin was serially diluted along the ordinate, while L-161, 982 was diluted along the abscissa. The resulting checkerboard contained each combination of two drugs, with wells that contain the highest concentration of each antibiotic at opposite corners. Each microtiter well was inoculated with 1×10^5 CFU. The plates were incubated at 37° C. for 24 h and the OD600 measured using a microplate spectrophotometer. […]
# [4] = test system: mouse primary myoblasts; conditions: cited from earlier work
# [5] = test system: Streptococcus mutans; experiment: spectrum of activity, bacterial growth; format: cell-based; conditions: 50 μg/ml, 6 h
# Protocol: (§1) Bacterial growth was monitored for 6 h in medium alone or supplemented with 50 μg/ml of L-161, 982. Data shown is representative of three independent experiments.
# (§2) Strains and growth conditions. The methicillin-resistant S. aureus strain NRS383 used in all experiments was obtained from the Network on Antimicrobial Resistance in S. aureus (NARSA) data bank. NRS383 is positive for the toxic shock syndrome toxin (tst) and 6-toxin genes. SJ-MRSA 6 and SJ-SA5 are methicillin-resistant (MRSA) and methicillin-sensitive (MSSA) clinical S. aureus strains respectively isolated from a patient's catheter. Other bacterial species used in this study include Escherichia coli (ATCC 25922, clinical isolate), S. epidermidis (ATCC 12228), Klebsiella pneumonia (ATCC 43816), Enterococcus faecalis (ATCC 51299, clinical isolate), and Streptococcus mutans (UA159, 12). S. mutans strain was maintained in brain heart infusion (BHI) broth while the other bacterial species were maintained in Luria-Bertani broth. Frozen stocks were obtained at −80° C. and streaked onto agar plates at 37° C. prior to use. A single colony was transferred to 10 ml of culture broth and shaken at 37° C. overnight. On the following day, the overnight culture was diluted 1:100 in fresh growth medium and shaken at 37° C. for 3 h to obtain cells in mid-log growth phase. S. mutans cultures were grown without agitation in the presence of 5% CO2.
# (§3) The spectrum of activity of L-161, 982 was investigated by testing several Gram-positive and Gram-negative bacteria.
# [6] = test system: K. pneumoniae; experiment: spectrum of activity, bacterial growth; format: cell-based; conditions: 50 μg/ml, 6 h
# Protocol: as §1, §2, §3
# [7] = test system: S. epidermidis; experiment: spectrum of activity, bacterial growth; format: cell-based; conditions: 50 μg/ml, 6 h
# Protocol: as §1, §2, §3
# [8] = test system: E. faecium; experiment: spectrum of activity, bacterial growth; format: cell-based; conditions: 50 μg/ml, 6 h
# Protocol: as §1, §2, §3
# Chain of EP2 (P43116 whole entry): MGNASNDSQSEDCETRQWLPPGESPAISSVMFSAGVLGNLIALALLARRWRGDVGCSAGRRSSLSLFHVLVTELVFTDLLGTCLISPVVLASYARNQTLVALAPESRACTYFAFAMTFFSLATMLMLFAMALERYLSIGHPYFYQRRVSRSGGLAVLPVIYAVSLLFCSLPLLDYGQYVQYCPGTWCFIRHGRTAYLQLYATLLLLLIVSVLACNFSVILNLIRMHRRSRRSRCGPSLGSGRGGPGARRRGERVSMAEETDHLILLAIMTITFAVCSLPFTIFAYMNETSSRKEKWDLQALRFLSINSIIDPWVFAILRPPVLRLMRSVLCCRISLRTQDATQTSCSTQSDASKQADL
smiles,measurement,setting,value
"CCCCc1nn(-c2ccccc2C(F)(F)F)c(=O)n1Cc1ccc(-c2ccccc2S(=O)(=O)NC(=O)c2sccc2C)cc1 [L-161, 982, N-[[4′-[[3-Butyl-1,5-dihydro-5-oxo-1-[2-(trifluoromethyl)phenyl]-4H-1,2,4-triazol-4-yl]methyl][1,1′-biphenyl]-2-yl]sulfonyl]-3-methyl-2-thiophenecarboxamide]",Ki,[1],23 µM
same,reduction of S. aureus in peritoneal cavity and spleen,"[2]; 24 h post inoculation, vs untreated",3 logs
same,additional reduction of S. aureus in peritoneal cavity and spleen,"[2]; 48 h post infection, after a second dose",3 log
same,mortality by day 2 at high inoculum,[2]; inoculum 2×10^7 CFU,could not be reversed
same,survival by day 2 post-inoculation,"[2]; inoculum 4×10^6 CFU, control 40",85%
same,survival by day 2 post-inoculation,"[2]; inoculum 5×10^6 CFU, control 25",55%
same,survival through day 10,"[2]; intermediate and lowest inocula, continued dosing, control 20% survival",sustained survival
same,survival rate raised by,"[2]; one treatment, depending on infectious dose",at least 50%
same,fractional inhibitory concentration (FIC) index,[3],0.563
same,proliferation of mouse primary myoblasts,[4],inhibit proliferation
same,growth inhibitory activity,[5],restricted to Gram-positive bacteria that included S. epidermidis and Streptococcus mutans
same,growth inhibitory activity,[6],No inhibitory effects
same,growth inhibitory activity,[7],restricted to Gram-positive bacteria that included S. epidermidis and Streptococcus mutans
same,growth inhibitory activity,[8],No inhibitory effects
